In patent US12071441B2, “10-(di(phenyl)methyl)-4-hydroxy-8,9,9A,10-tetrahydro-7H-pyrrolo[1′,2′:4,5]pyrazino[1,2-b]pyridazine-3,5-dione derivatives and related compounds as inhibitors of the orthomyxovirus replication for treating influenza” (Novartis AG, priority 2018, dated 2024):

Key:
Experiment in all cases: microbe, parasite or virus in culture
Type in all cases: cell-based
[1] = system: influenza A virus minigenome (PB2, PB1, PA, NP; luciferase reporter) in 293T cells, RNP_CAL; settings: HEK-293T, 48 h, read-out: RNP_CAL_EC50
[2] = system: influenza A virus minigenome (PB2, PB1, PA, NP; luciferase reporter) in 293T cells, RNP_Hubei; settings: HEK-293T, 48 h
[3] = system: influenza A virus minigenome (PB2, PB1, PA, NP; luciferase reporter) in 293T cells, RNP_Alaska; settings: HEK-293T, 48 h

Structure (SMILES)	EC50 [1] [nM]	EC50 [2] [nM]	EC50 [3] [nM]
CC(=O)Oc1c2n(ncc1=O)[C@@H]([C@H](c1ccc(F)cc1)c1cccc(F)c1F)[C@H]1CCCN1C2=O [Example 83, (9aR,10S)-10-((R)-(2,3-difluorophenyl)(4-fluorophenyl)methyl)-3,5-dioxo-3,5,8,9,9a,10-hexahydro-7H-pyrrolo[1′,2′:4,5]pyrazino[1,2-b]pyridazin-4-yl acetate]	< 100	< 100	< 100
CC(C)C(=O)Oc1c2n(ncc1=O)[C@@H]([C@H](c1ccc(F)cc1)c1cccc(F)c1F)[C@H]1CCCN1C2=O [Example 84, (9aR,10S)-10-((R)-(2,3-difluorophenyl)(4-fluorophenyl)methyl)-3,5-dioxo-3,5,8,9,9a,10-hexahydro-7H-pyrrolo[1′,2′:4,5]pyrazino[1,2-b]pyridazin-4-yl isobutyrate]	< 100	< 100	< 100
CN(C)C(=O)OCOc1c2n(ncc1=O)[C@@H]([C@H](c1ccc(F)cc1)c1cccc(F)c1F)[C@H]1CCCN1C2=O [Example 85, (((9aR,10S)-10-((R)-(2,3-difluorophenyl)(4-fluorophenyl)methyl)-3,5-dioxo-3,5,8,9,9a,10-hexahydro-7H-pyrrolo[1′,2′:4,5]pyrazino[1,2-b]pyridazin-4-yl)oxy)methyl dimethylcarbamate]	100 to 1000	100 to 1000	≥ 1000
COCCOC(=O)OCOc1c2n(ncc1=O)[C@@H]([C@H](c1ccc(F)cc1)c1cccc(F)c1F)[C@H]1CCCN1C2=O [Example 86, (((9aR,10S)-10-((R)-(2,3-difluorophenyl)(4-fluorophenyl)methyl)-3,5-dioxo-3,5,8,9,9a,10-hexahydro-7H-pyrrolo[1′,2′:4,5]pyrazino[1,2-b]pyridazin-4-yl)oxy)methyl (2-methoxyethyl) carbonate]	< 100	< 100	< 100
CC(C)OC(=O)Oc1c2n(ncc1=O)[C@@H]([C@H](c1ccc(F)cc1)c1cccc(F)c1F)[C@H]1CCCN1C2=O [Example 88, (9aR,10S)-10-((R)-(2,3-difluorophenyl)(4-fluorophenyl)methyl)-3,5-dioxo-3,5,8,9,9a,10-hexahydro-7H-pyrrolo[1′,2′:4,5]pyrazino[1,2-b]pyridazin-4-yl isopropyl carbonate]	< 100	< 100	< 100
CCOC(=O)OCOc1c2n(ncc1=O)[C@@H]([C@H](c1ccc(F)cc1)c1cccc(F)c1F)[C@H]1CCCN1C2=O [Example 92, (((9aR,10S)-10-((R)-(2,3-difluorophenyl)(4-fluorophenyl)methyl)-3,5-dioxo-3,5,8,9,9a,10-hexahydro-7H-pyrrolo[1′,2′:4,5]pyrazino[1,2-b]pyridazin-4-yl)oxy)methyl ethyl carbonate]	< 100	< 100	< 100
CC(C)CC(=O)Oc1c2n(ncc1=O)[C@@H]([C@H](c1ccc(F)cc1)c1cccc(F)c1F)[C@H]1CCCN1C2=O [Example 93, (9aR,10S)-10-((R)-(2,3-difluorophenyl)(4-fluorophenyl)methyl)-3,5-dioxo-3,5,8,9,9a,10-hexahydro-7H-pyrrolo[1′,2′:4,5]pyrazino[1,2-b]pyridazin-4-yl 3-methylbutanoate]	< 100	< 100	< 100
COC(=O)OCOc1c2n(ncc1=O)[C@@H]([C@H](c1cccc(F)c1)c1cccc(F)c1F)[C@H]1CCCN1C2=O [Example 95, (((9aR,10S)-10-((R)-(2,3-difluorophenyl)(3-fluorophenyl)methyl)-3,5-dioxo-3,5,8,9,9a,10-hexahydro-7H-pyrrolo[1′,2′:4,5]pyrazino[1,2-b]pyridazin-4-yl)oxy)methyl methyl carbonate]	< 100	< 100	< 100
CN(C)C(=O)Oc1c2n(ncc1=O)[C@@H]([C@H](c1cccc(F)c1)c1cccc(F)c1F)[C@H]1CCCN1C2=O [Example 96, (9aR,10S)-10-((R)-(2,3-difluorophenyl)(3-fluorophenyl)methyl)-3,5-dioxo-3,5,8,9,9a,10-hexahydro-7H-pyrrolo[1′,2′:4,5]pyrazino[1,2-b]pyridazin-4-yl dimethylcarbamate]	≥ 1000	100 to 1000	≥ 1000
COCCOC(=O)Oc1c2n(ncc1=O)[C@@H]([C@H](c1cccc(F)c1)c1cccc(F)c1F)[C@H]1CCCN1C2=O [Example 97, (9aR,10S)-10-((R)-(2,3-difluorophenyl)(3-fluorophenyl)methyl)-3,5-dioxo-3,5,8,9,9a,10-hexahydro-7H-pyrrolo[1′,2′:4,5]pyrazino[1,2-b]pyridazin-4-yl (2-methoxyethyl) carbonate]	< 100	< 100	< 100
O=C(Oc1c2n(ncc1=O)[C@@H]([C@H](c1cccc(F)c1)c1cccc(F)c1F)[C@H]1CCCN1C2=O)N1CCCCC1 [Example 98, (9aR,10S)-10-((R)-(2,3-difluorophenyl)(3-fluorophenyl)methyl)-3,5-dioxo-3,5,8,9,9a,10-hexahydro-7H-pyrrolo[1′,2′:4,5]pyrazino[1,2-b]pyridazin-4-yl piperidine-1-carboxylate]	≥ 1000	≥ 1000	≥ 1000
COCCOC(=O)OCOc1c2n(ncc1=O)[C@@H]([C@H](c1cccc(F)c1)c1cccc(F)c1F)[C@H]1CCCN1C2=O [Example 99, (((9aR,10S)-10-((R)-(2,3-difluorophenyl)(3-fluorophenyl)methyl)-3,5-dioxo-3,5,8,9,9a,10-hexahydro-7H-pyrrolo[1′,2′:4,5]pyrazino[1,2-b]pyridazin-4-yl)oxy)methyl (2-methoxyethyl) carbonate]	< 100	< 100	< 100
CN1CCN(C(=O)Oc2c3n(ncc2=O)[C@@H]([C@H](c2cccc(F)c2)c2cccc(F)c2F)[C@H]2CCCN2C3=O)CC1 [Example 100, (9aR,10S)-10-((R)-(2,3-difluorophenyl)(3-fluorophenyl)methyl)-3,5-dioxo-3,5,8,9,9a,10-hexahydro-7H-pyrrolo[1′,2′:4,5]pyrazino[1,2-b]pyridazin-4-yl 4-methylpiperazine-1-carboxylate]	≥ 1000	100 to 1000	≥ 1000
O=C(Oc1c2n(ncc1=O)[C@@H]([C@H](c1cccc(F)c1)c1cccc(F)c1F)[C@H]1CCCN1C2=O)N1CCC(N2CCCCC2)CC1 [Example 102, (9aR,10S)-10-((R)-(2,3-difluorophenyl)(3-fluorophenyl)methyl)-3,5-dioxo-3,5,8,9,9a,10-hexahydro-7H-pyrrolo[1′,2′:4,5]pyrazino[1,2-b]pyridazin-4-yl [1,4′-bipiperidine]-1′-carboxylate]	≥ 1000	≥ 1000	≥ 1000
COC(=O)C(C)(C)OC(=O)OCOc1c2n(ncc1=O)[C@@H]([C@H](c1cccc(F)c1)c1cccc(F)c1F)[C@H]1CCCN1C2=O [Example 104, methyl 2-((((((9aR,10S)-10-((R)-(2,3-difluorophenyl)(3-fluorophenyl)methyl)-3,5-dioxo-3,5,8,9,9a,10-hexahydro-7H-pyrrolo[1′,2′:4,5]pyrazino[1,2-b]pyridazin-4-yl)oxy)methoxy)carbonyl)oxy)-2-methylpropanoate]	100 to 1000	100 to 1000	100 to 1000
CC(=O)Oc1c2n(ncc1=O)[C@@H]([C@H](c1cccc(F)c1)c1cccc(F)c1F)[C@H]1CCCN1C2=O [Example 105, (9aR,10S)-10-((R)-(2,3-difluorophenyl)(3-fluorophenyl)methyl)-3,5-dioxo-3,5,8,9,9a,10-hexahydro-7H-pyrrolo[1′,2′:4,5]pyrazino[1,2-b]pyridazin-4-yl acetate]	< 100	< 100	< 100
CCC(=O)Oc1c2n(ncc1=O)[C@@H]([C@H](c1cccc(F)c1)c1cccc(F)c1F)[C@H]1CCCN1C2=O [Example 106, (9aR,10S)-10-((R)-(2,3-difluorophenyl)(3-fluorophenyl)methyl)-3,5-dioxo-3,5,8,9,9a,10-hexahydro-7H-pyrrolo[1′,2′:4,5]pyrazino[1,2-b]pyridazin-4-yl propionate]	< 100	< 100	< 100
CC(C)C(=O)Oc1c2n(ncc1=O)[C@@H]([C@H](c1cccc(F)c1)c1cccc(F)c1F)[C@H]1CCCN1C2=O [Example 107, (9aR,10S)-10-((R)-(2,3-difluorophenyl)(3-fluorophenyl)methyl)-3,5-dioxo-3,5,8,9,9a,10-hexahydro-7H-pyrrolo[1′,2′:4,5]pyrazino[1,2-b]pyridazin-4-yl isobutyrate]	< 100	< 100	< 100
CC(C)C(=O)OCOc1c2n(ncc1=O)[C@@H]([C@H](c1cccc(F)c1)c1cccc(F)c1F)[C@H]1CCCN1C2=O [Example 108, (((9aR,10S)-10-((R)-(2,3-difluorophenyl)(3-fluorophenyl)methyl)-3,5-dioxo-3,5,8,9,9a,10-hexahydro-7H-pyrrolo[1′,2′:4,5]pyrazino[1,2-b]pyridazin-4-yl)oxy)methyl isobutyrate]	< 100	< 100	< 100
CC(C)CC(=O)Oc1c2n(ncc1=O)[C@@H]([C@H](c1cccc(F)c1)c1cccc(F)c1F)[C@H]1CCCN1C2=O [Example 110, (9aR,10S)-10-((R)-(2,3-difluorophenyl)(3-fluorophenyl)methyl)-3,5-dioxo-3,5,8,9,9a,10-hexahydro-7H-pyrrolo[1′,2′:4,5]pyrazino[1,2-b]pyridazin-4-yl 3-methylbutanoate]	< 100	< 100	< 100
COCCC(=O)Oc1c2n(ncc1=O)[C@@H]([C@H](c1cccc(F)c1)c1cccc(F)c1F)[C@H]1CCCN1C2=O [Example 112, (9aR,10S)-10-((R)-(2,3-difluorophenyl)(3-fluorophenyl)methyl)-3,5-dioxo-3,5,8,9,9a,10-hexahydro-7H-pyrrolo[1′,2′:4,5]pyrazino[1,2-b]pyridazin-4-yl 3-methoxypropanoate]	< 100	< 100	< 100
